Measured values as given in PubChem BioAssay (NCI).
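Protocol summary: plate cells (96-well), add compound at 5 concentrations, incubate 48 h, interpolate endpoints linearly. GI50 marks 50% less growth. TGI denotes the concentration required for complete inhibition of growth.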

Experiments:
Test in all cases: NCI tumour cell line growth inhibition, 48 h
SK-MEL-2 melanoma = tested on: SK-MEL-2 melanoma
COLO 205 colon = tested on: COLO 205 colon
HT29 colon = tested on: HT29 colon
HS 578T breast = tested on: HS 578T breast
SK-OV-3 ovarian = tested on: SK-OV-3 ovarian
OVCAR-5 ovarian = tested on: OVCAR-5 ovarian
NCI-H23 lung = tested on: NCI-H23 lung
A549 NSCLC = tested on: A549 NSCLC
OVCAR-4 ovarian = tested on: OVCAR-4 ovarian
UACC-257 melanoma = tested on: UACC-257 melanoma
K-562 leukemia = tested on: K-562 leukemia
MDA-MB-231 breast = tested on: MDA-MB-231 breast
NCI-H522 lung = tested on: NCI-H522 lung
DU-145 prostate = tested on: DU-145 prostate
NCI/ADR-RES ovarian = tested on: NCI/ADR-RES ovarian
OVCAR-3 ovarian = tested on: OVCAR-3 ovarian
HOP-92 NSCLC = tested on: HOP-92 NSCLC
UO-31 renal = tested on: UO-31 renal
SF-539 CNS = tested on: SF-539 CNS
LOX IMVI melanoma = tested on: LOX IMVI melanoma
RPMI-8226 leukemia = tested on: RPMI-8226 leukemia
EKVX NSCLC = tested on: EKVX NSCLC
CAKI-1 renal = tested on: CAKI-1 renal
A498 renal = tested on: A498 renal
RXF 393 renal = tested on: RXF 393 renal
HOP-62 NSCLC = tested on: HOP-62 NSCLC
SW-620 colon = tested on: SW-620 colon
NCI-H460 lung = tested on: NCI-H460 lung
786-0 renal = tested on: 786-0 renal
HCC-2998 colon = tested on: HCC-2998 colon
U251 CNS = tested on: U251 CNS
CCRF-CEM leukemia = tested on: CCRF-CEM leukemia
PC-3 prostate = tested on: PC-3 prostate
SF-268 CNS = tested on: SF-268 CNS
SNB-75 CNS = tested on: SNB-75 CNS
SK-MEL-5 melanoma = tested on: SK-MEL-5 melanoma
UACC-62 melanoma = tested on: UACC-62 melanoma
IGROV1 ovarian = tested on: IGROV1 ovarian
M14 melanoma = tested on: M14 melanoma
MOLT-4 leukemia = tested on: MOLT-4 leukemia
HL-60(TB) leukemia = tested on: HL-60(TB) leukemia
HCT-116 colon = tested on: HCT-116 colon
SF-295 CNS = tested on: SF-295 CNS
MDA-MB-435 = tested on: MDA-MB-435
BT-549 breast = tested on: BT-549 breast
SN12C renal = tested on: SN12C renal
MCF7 breast = tested on: MCF7 breast
MALME-3M melanoma = tested on: MALME-3M melanoma
T-47D breast = tested on: T-47D breast
SK-MEL-28 melanoma = tested on: SK-MEL-28 melanoma
KM12 colon = tested on: KM12 colon
ACHN renal = tested on: ACHN renal
OVCAR-8 ovarian = tested on: OVCAR-8 ovarian
HCT-15 colon = tested on: HCT-15 colon
NCI-H226 lung = tested on: NCI-H226 lung

CNCCNc1nc2ccccc2c2c(=O)c3cccc(OC)c3sc12
GI50 (SK-MEL-2 melanoma): 1.78 µM | TGI (SK-MEL-2 melanoma): 3.62 µM | GI50 (COLO 205 colon): 1.11 µM | TGI (COLO 205 colon): 2.68 µM | GI50 (HT29 colon): 0.652 µM | TGI (HT29 colon): 2.28 µM | GI50 (HS 578T breast): 1.57 µM | TGI (HS 578T breast): 3.97 µM | GI50 (SK-OV-3 ovarian): 1.65 µM | TGI (SK-OV-3 ovarian): 3.84 µM | GI50 (OVCAR-5 ovarian): 1.64 µM | TGI (OVCAR-5 ovarian): 3.27 µM | GI50 (NCI-H23 lung): 1.48 µM | TGI (NCI-H23 lung): 3 µM | GI50 (A549 NSCLC): 1.2 µM | TGI (A549 NSCLC): 2.78 µM | GI50 (OVCAR-4 ovarian): 1.47 µM | TGI (OVCAR-4 ovarian): 3.16 µM | GI50 (UACC-257 melanoma): 1.78 µM | TGI (UACC-257 melanoma): 3.67 µM | GI50 (K-562 leukemia): 0.596 µM | TGI (K-562 leukemia): 2.65 µM | GI50 (MDA-MB-231 breast): 1.3 µM | TGI (MDA-MB-231 breast): 2.78 µM | GI50 (NCI-H522 lung): 1.34 µM | TGI (NCI-H522 lung): 3.1 µM | GI50 (DU-145 prostate): 1.49 µM | TGI (DU-145 prostate): 2.95 µM | GI50 (NCI/ADR-RES ovarian): 1.23 µM | TGI (NCI/ADR-RES ovarian): 2.84 µM | GI50 (OVCAR-3 ovarian): 1.52 µM | TGI (OVCAR-3 ovarian): 3.02 µM | GI50 (HOP-92 NSCLC): 1.13 µM | TGI (HOP-92 NSCLC): 3.77 µM | GI50 (UO-31 renal): 0.38 µM | TGI (UO-31 renal): 2.08 µM | GI50 (SF-539 CNS): 1.69 µM | TGI (SF-539 CNS): 3.12 µM | GI50 (LOX IMVI melanoma): 1.27 µM | TGI (LOX IMVI melanoma): 2.63 µM | GI50 (RPMI-8226 leukemia): 1.43 µM | TGI (RPMI-8226 leukemia): 3.28 µM | GI50 (EKVX NSCLC): 1.56 µM | TGI (EKVX NSCLC): 3.05 µM | GI50 (CAKI-1 renal): 1.32 µM | TGI (CAKI-1 renal): 2.71 µM | GI50 (A498 renal): 1.41 µM | TGI (A498 renal): 2.97 µM | GI50 (RXF 393 renal): 1.38 µM | TGI (RXF 393 renal): 2.75 µM | GI50 (HOP-62 NSCLC): 1.25 µM | TGI (HOP-62 NSCLC): 2.92 µM | GI50 (SW-620 colon): 0.575 µM | TGI (SW-620 colon): 2.11 µM | GI50 (NCI-H460 lung): 1.23 µM | TGI (NCI-H460 lung): 2.72 µM | GI50 (786-0 renal): 1.76 µM | TGI (786-0 renal): 3.35 µM | GI50 (HCC-2998 colon): 1.55 µM | TGI (HCC-2998 colon): 3.18 µM | GI50 (U251 CNS): 1.24 µM | TGI (U251 CNS): 2.65 µM | GI50 (CCRF-CEM leukemia): 1.43 µM | TGI (CCRF-CEM leukemia): 3.2 µM | GI50 (PC-3 prostate): 1.24 µM | TGI (PC-3 prostate): 2.8 µM | GI50 (SF-268 CNS): 1.56 µM | TGI (SF-268 CNS): 3.33 µM | GI50 (SNB-75 CNS): 1.1 µM | TGI (SNB-75 CNS): 2.33 µM | GI50 (SK-MEL-5 melanoma): 1.65 µM | TGI (SK-MEL-5 melanoma): 3.04 µM | GI50 (UACC-62 melanoma): 1.57 µM | TGI (UACC-62 melanoma): 2.97 µM | GI50 (IGROV1 ovarian): 1 µM | TGI (IGROV1 ovarian): 2.44 µM | GI50 (M14 melanoma): 1.59 µM | TGI (M14 melanoma): 3.01 µM | GI50 (MOLT-4 leukemia): 0.427 µM | TGI (MOLT-4 leukemia): 1.63 µM | GI50 (HL-60(TB) leukemia): 1.8 µM | TGI (HL-60(TB) leukemia): 3.64 µM | GI50 (HCT-116 colon): 0.547 µM | TGI (HCT-116 colon): 1.86 µM | GI50 (SF-295 CNS): 1.55 µM | TGI (SF-295 CNS): 3.13 µM | GI50 (MDA-MB-435): 1.67 µM | TGI (MDA-MB-435): 3.09 µM | GI50 (BT-549 breast): 1.7 µM | TGI (BT-549 breast): 3.65 µM | GI50 (SN12C renal): 1.08 µM | TGI (SN12C renal): 2.53 µM | GI50 (MCF7 breast): 1.17 µM | TGI (MCF7 breast): 2.59 µM | GI50 (MALME-3M melanoma): 1.83 µM | TGI (MALME-3M melanoma): 3.59 µM | GI50 (T-47D breast): 1.57 µM | TGI (T-47D breast): 3.56 µM | GI50 (SK-MEL-28 melanoma): 1.94 µM | TGI (SK-MEL-28 melanoma): 3.62 µM | GI50 (KM12 colon): 1.62 µM | TGI (KM12 colon): 3.11 µM | GI50 (ACHN renal): 1.01 µM | TGI (ACHN renal): 2.3 µM | GI50 (OVCAR-8 ovarian): 1.15 µM | TGI (OVCAR-8 ovarian): 2.8 µM | GI50 (HCT-15 colon): 0.829 µM | TGI (HCT-15 colon): 2.15 µM | GI50 (NCI-H226 lung): 1.61 µM | TGI (NCI-H226 lung): 3.49 µM
